#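 Each compound was tested at five concentrations against cells in 96-well plates for 48 hours. GI50: concentration for 50% inhibition of growth.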 Calls of active or inactive are those of the source. No stated cut-off is given here; in the data, active = GI50 up to about 1.1 µM and inactive = higher.
# Key:
# Test in all cases: NCI tumour cell line growth inhibition, 48 h
# 786-0 = system: 786-0
# A498 = system: A498
# A549 = system: A549
# ACHN = system: ACHN
# CAKI-1 = system: CAKI-1
# CCRF-CEM = system: CCRF-CEM
# COLO 205 = system: COLO 205
# DU-145 = system: DU-145
# EKVX = system: EKVX
# HCC 2998 = system: HCC 2998
# HCT-116 = system: HCT-116
# HCT-15 = system: HCT-15
# HL-60 = system: HL-60
# HOP-62 = system: HOP-62
# HOP-92 = system: HOP-92
# HT-29 = system: HT-29
# K562 = system: K562
# KM12 = system: KM12
# LOX IMVI = system: LOX IMVI
# M14 = system: M14
# MCF7 = system: MCF7
# MDA-MB-231 = system: MDA-MB-231
# MDA-MB-435 = system: MDA-MB-435
# MDA-N = system: MDA-N
# MOLT-4 = system: MOLT-4
# NCI-H226 = system: NCI-H226
# NCI-H23 = system: NCI-H23
# NCI-H460 = system: NCI-H460
# NCI/ADR-RES = system: NCI/ADR-RES
# OVCAR-3 = system: OVCAR-3
# OVCAR-4 = system: OVCAR-4
# OVCAR-5 = system: OVCAR-5
# OVCAR-8 = system: OVCAR-8
# PC-3 = system: PC-3
# RPMI-8226 = system: RPMI-8226
# SF-295 = system: SF-295
# SK-MEL-28 = system: SK-MEL-28
# SK-MEL-2 = system: SK-MEL-2
# SK-MEL-5 = system: SK-MEL-5
# SK-OV-3 = system: SK-OV-3
# SN12C = system: SN12C
# SNB-19 = system: SNB-19
# SNB-75 = system: SNB-75
# SR = system: SR
# SW-620 = system: SW-620
# T47D = system: T47D
# TK-10 = system: TK-10
# U-251 = system: U-251
# UACC-257 = system: UACC-257
# UACC-62 = system: UACC-62
# UO-31 = system: UO-31
# Hs-578T = system: Hs-578T
# IGROV-1 = system: IGROV-1
# Malme-3M = system: Malme-3M
# NCI-H522 = system: NCI-H522
# RXF 393 = system: RXF 393
# SF-268 = system: SF-268
# SF-539 = system: SF-539
smiles,measurement,setting,value
C1=C[C@]2(CCC13OCCO3)COc1ccccc12,GI50,786-0,54.3 µM (inactive)
same,GI50,A498,> 100 µM (inactive)
same,GI50,A549,> 100 µM (inactive)
same,GI50,ACHN,36.6 µM (inactive)
same,GI50,CAKI-1,> 100 µM (inactive)
same,GI50,CCRF-CEM,33.3 µM (inactive)
same,GI50,COLO 205,88.7 µM (inactive)
same,GI50,DU-145,32.3 µM (inactive)
same,GI50,EKVX,66.1 µM (inactive)
same,GI50,HCC 2998,43.6 µM (inactive)
same,GI50,HCT-116,37.1 µM (inactive)
same,GI50,HCT-15,28 µM
same,GI50,HL-60,6.81 µM (inactive)
same,GI50,HOP-62,41.2 µM (inactive)
same,GI50,HOP-92,46.7 µM (inactive)
same,GI50,HT-29,28.5 µM (inactive)
same,GI50,K562,11.9 µM (inactive)
same,GI50,KM12,26.3 µM (inactive)
same,GI50,LOX IMVI,21.5 µM (inactive)
same,GI50,M14,26.6 µM (inactive)
same,GI50,MCF7,33.3 µM (inactive)
same,GI50,MDA-MB-231,75.9 µM (inactive)
same,GI50,MDA-MB-435,31.9 µM (inactive)
same,GI50,MDA-N,35.6 µM (inactive)
same,GI50,MOLT-4,20.2 µM (inactive)
same,GI50,NCI-H226,31.9 µM (inactive)
same,GI50,NCI-H23,26.5 µM (inactive)
same,GI50,NCI-H460,31.7 µM (inactive)
same,GI50,NCI/ADR-RES,27.4 µM (inactive)
same,GI50,OVCAR-3,36.1 µM (inactive)
same,GI50,OVCAR-4,47 µM (inactive)
same,GI50,OVCAR-5,30.9 µM (inactive)
same,GI50,OVCAR-8,32.4 µM (inactive)
same,GI50,PC-3,35.8 µM (inactive)
same,GI50,RPMI-8226,25.5 µM (inactive)
same,GI50,SF-295,43.1 µM (inactive)
same,GI50,SK-MEL-28,49.3 µM (inactive)
same,GI50,SK-MEL-2,34.7 µM (inactive)
same,GI50,SK-MEL-5,52 µM (inactive)
same,GI50,SK-OV-3,53.2 µM (inactive)
same,GI50,SN12C,74.8 µM (inactive)
same,GI50,SNB-19,38 µM (inactive)
same,GI50,SNB-75,42.3 µM (inactive)
same,GI50,SR,29.9 µM (inactive)
same,GI50,SW-620,54.8 µM (inactive)
same,GI50,T47D,47 µM (inactive)
same,GI50,TK-10,49.1 µM (inactive)
same,GI50,U-251,48.8 µM (inactive)
same,GI50,UACC-257,43.1 µM (inactive)
same,GI50,UACC-62,23.9 µM (inactive)
same,GI50,UO-31,35.3 µM (inactive)
O=C(Nc1ccccc1)c1nn(-c2cc(S(=O)(=O)O)c([N+](=O)[O-])cc2Cl)[n+](-c2cc(S(=O)(=O)[O-])c([N+](=O)[O-])cc2Cl)n1,GI50,786-0,> 100 µM (inactive)
same,GI50,A549,> 100 µM (inactive)
same,GI50,ACHN,> 100 µM (inactive)
same,GI50,CAKI-1,> 100 µM (inactive)
same,GI50,CCRF-CEM,> 100 µM (inactive)
same,GI50,COLO 205,> 100 µM (inactive)
same,GI50,DU-145,> 100 µM (inactive)
same,GI50,EKVX,> 100 µM (inactive)
same,GI50,HCC 2998,> 100 µM (inactive)
same,GI50,HCT-116,> 100 µM (inactive)
same,GI50,HCT-15,> 100 µM
same,GI50,HL-60,40.8 µM (inactive)
same,GI50,HOP-62,> 100 µM (inactive)
same,GI50,HT-29,> 100 µM (inactive)
same,GI50,Hs-578T,> 100 µM (inactive)
same,GI50,IGROV-1,> 100 µM (inactive)
same,GI50,K562,> 100 µM (inactive)
same,GI50,KM12,> 100 µM (inactive)
same,GI50,LOX IMVI,38.3 µM (inactive)
same,GI50,M14,> 100 µM (inactive)
same,GI50,MCF7,> 100 µM (inactive)
same,GI50,MDA-MB-231,43.6 µM (inactive)
same,GI50,MDA-MB-435,> 100 µM (inactive)
same,GI50,MDA-N,> 100 µM (inactive)
same,GI50,MOLT-4,> 100 µM (inactive)
same,GI50,Malme-3M,> 100 µM (inactive)
same,GI50,NCI-H226,> 100 µM (inactive)
same,GI50,NCI-H23,> 100 µM (inactive)
same,GI50,NCI-H460,> 100 µM (inactive)
same,GI50,NCI-H522,> 100 µM (inactive)
same,GI50,NCI/ADR-RES,> 100 µM (inactive)
same,GI50,OVCAR-3,> 100 µM (inactive)
same,GI50,OVCAR-4,> 100 µM (inactive)
same,GI50,OVCAR-5,> 100 µM (inactive)
same,GI50,PC-3,> 100 µM (inactive)
same,GI50,RPMI-8226,> 100 µM (inactive)
same,GI50,RXF 393,> 100 µM (inactive)
same,GI50,SF-268,> 100 µM (inactive)
same,GI50,SF-295,> 100 µM (inactive)
same,GI50,SF-539,> 100 µM (inactive)
same,GI50,SK-MEL-28,> 100 µM (inactive)
same,GI50,SK-MEL-2,> 100 µM (inactive)
same,GI50,SK-MEL-5,> 100 µM (inactive)
same,GI50,SK-OV-3,> 100 µM (inactive)
same,GI50,SN12C,> 100 µM (inactive)
same,GI50,SNB-19,> 100 µM (inactive)
same,GI50,SNB-75,> 100 µM (inactive)
same,GI50,SR,> 100 µM (inactive)
same,GI50,SW-620,> 100 µM (inactive)
same,GI50,T47D,> 100 µM (inactive)
same,GI50,TK-10,> 100 µM (inactive)
same,GI50,U-251,> 100 µM (inactive)
same,GI50,UACC-257,> 100 µM (inactive)
same,GI50,UACC-62,> 100 µM (inactive)
same,GI50,UO-31,> 100 µM (inactive)
OC(c1cc(-c2ccc(C(F)(F)F)cc2)nc(C(F)(F)F)c1)C1CCCCN1 (centres undefined) [ENPIROLINE PHOSPHATE],GI50,786-0,1.89 µM (inactive)
same,GI50,A498,2.24 µM (inactive)
same,GI50,CAKI-1,5.53 µM (inactive)
same,GI50,CCRF-CEM,1.87 µM (inactive)
same,GI50,COLO 205,1.82 µM (inactive)
same,GI50,HCC 2998,1.69 µM (inactive)
same,GI50,HCT-116,2 µM (inactive)
same,GI50,HCT-15,2.18 µM
same,GI50,HL-60,2.01 µM (inactive)
same,GI50,HT-29,1.95 µM (inactive)
same,GI50,IGROV-1,1.73 µM (inactive)
same,GI50,KM12,1.87 µM (inactive)
same,GI50,LOX IMVI,1.73 µM (inactive)
same,GI50,M14,1.55 µM (inactive)
same,GI50,MCF7,1.8 µM (inactive)
same,GI50,MDA-MB-435,1.86 µM (inactive)
same,GI50,MDA-N,1.67 µM (inactive)
same,GI50,MOLT-4,1.86 µM (inactive)
same,GI50,Malme-3M,1.78 µM (inactive)
same,GI50,NCI-H460,2.08 µM (inactive)
same,GI50,NCI-H522,1.69 µM (inactive)
same,GI50,NCI/ADR-RES,2.62 µM (inactive)
same,GI50,OVCAR-4,1.87 µM (inactive)
same,GI50,PC-3,2.49 µM (inactive)
same,GI50,RPMI-8226,2.61 µM (inactive)
same,GI50,RXF 393,1.78 µM (inactive)
same,GI50,SK-MEL-2,2.02 µM (inactive)
same,GI50,SK-OV-3,2.3 µM (inactive)
same,GI50,SR,2.33 µM (inactive)
same,GI50,SW-620,1.85 µM (inactive)
same,GI50,U-251,1.88 µM (inactive)
same,GI50,UACC-257,2.03 µM (inactive)
same,GI50,UACC-62,1.78 µM (inactive)

# From ChEMBL document CHEMBL1201862, “PubChem BioAssay data set” (2004)
